According to the supplement of paper PMC11061612:

Columns and labels:
[1] = compound: CC(C)n1c(=O)n(C)c2cnc3cc(F)c(-c4ccc(OCCCN5CCCCC5)nc4)cc3c21 [AZD1390]; settings: max 0.3 µM
Method in brief: (§1)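 Cancer cell lines were plated in 1536-well plates in 7.5 μl of DMEM/F12 or RPMI with 10% FBS and kept 24 hours at 37°C and 5% CO2 before 72 hours of dosing, with final DMSO typically 0.2%. CellTiter-Glo 2.0 luminescence measured viability, scaled between blank-well and DMSO-well means. Dose responses were fitted to a two-parameter logistic curve with a non-linear mixed effects model. This fit gives the single-agent IC50.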

[2] = compound: CC(=O)c1c(C)c2cnc(Nc3ccc(N4CCNCC4)cn3)nc2n(C2CCCC2)c1=O [Palbociclib]; settings: max 10 µM
Method in brief: as §1

[3] = compound: CC1=C(C(=CC=C1)Cl)NC(=O)C2=CN=C(S2)NC3=CC(=NC(=N3)C)N4CCN(CC4)CCO [Dasatinib]; settings: max 2 µM
Method in brief: as §1

[4] = compound: CS(=O)(=O)CCNCc1ccc(-c2ccc3ncnc(Nc4ccc(OCc5cccc(F)c5)c(Cl)c4)c3c2)o1 [Lapatinib]; settings: max 10 µM
Method in brief: as §1

[5] = compound: COc1cccc(OCCCN)c1-c1cc(Nc2cnc(C#N)cn2)n[nH]1 [Prexasertib]; settings: max 1 µM
Method in brief: as §1

[6] = compound: C1CN(CCC1(C(=O)N[C@@H](CCO)C2=CC=C(C=C2)Cl)N)C3=NC=NC4=C3C=CN4 [Capivasertib]; settings: max 10 µM
Method in brief: as §1

[7] = compound: CN(C)CCCOc1ccc(-c2ccc3ncc4c(c3c2)n(C2CCOCC2)c(=O)n4C)cn1 [AZD0156]; settings: max 3 µM
Method in brief: as §1

[8] = compound: COc1cccc2c1C(=O)c1c(O)c3c(c(O)c1C2=O)C[C@@](O)(C(=O)CO)C[C@@H]3O[C@H]1C[C@H](N)[C@H](O)[C@H](C)O1 [Doxorubicin]; settings: max 1 µM
Method in brief: as §1

[9] = compound: C[C@@H](c1ccc2nccn2c1)n1nnc2ncc(-c3cnn(C)c3)nc21 [Savolitinib]; settings: max 1 µM
Method in brief: as §1

[10] = compound: CCc1c2c(nc3ccc(O)cc13)-c1cc3c(c(=O)n1C2)COC(=O)[C@]3(O)CC [SN-38]; settings: max 0.3 µM
Method in brief: as §1

[11] = compound: Cc1nc(-c2cn3c(n2)-c2ccc(-c4cnn(C(C)(C)C(N)=O)c4)cc2OCC3)n(C(C)C)n1 [Taselisib]; settings: max 10 µM
Method in brief: as §1

[12] = compound: CN(CC[C@H](CSC1=CC=CC=C1)NC2=C(C=C(C=C2)S(=O)(=O)NC(=O)C3=CC=C(C=C3)N4CCC(CC4)[C@H](C5=CC=CC=C5C6=CC=C(C=C6)Cl)O)S(=O)(=O)C(F)(F)F)CCO [AZD4320]; settings: max 1 µM
Method in brief: as §1

[13] = compound: CC(=O)Nc1cccc(-n2c(=O)n(C3CC3)c(=O)c3c(Nc4ccc(I)cc4F)n(C)c(=O)c(C)c32)c1 [Trametinib]; settings: max 1 µM
Method in brief: as §1

[14] = compound: C[C@@H](Nc1cc(F)cc(F)c1)c1cc(C(=O)N(C)C)cc2c(=O)cc(N3CCOCC3)oc12 [AZD8186]; settings: max 3 µM
Method in brief: as §1

[15] = compound: C=CCn1c(=O)c2cnc(Nc3ccc(N4CCN(C)CC4)cc3)nc2n1-c1cccc(C(C)(C)O)n1 [AZD1775]; settings: max 3 µM
Method in brief: as §1

[16] = compound: COc1cc2ncnc(Nc3ccc(F)c(Cl)c3)c2cc1OCCCN1CCOCC1 [Gefitinib]; settings: max 10 µM
Method in brief: as §1

[17] = compound: O=C(c1cc(Cc2n[nH]c(=O)c3ccccc23)ccc1F)N1CCN(C(=O)C2CC2)CC1 [Olaparib]; settings: max 10 µM
Method in brief: as §1

[18] = compound: COc1nnc2ccc(N3CCC(c4ccc(OCCN5CCN(C)C(=O)[C@H]5C)cc4)CC3)nn12 [AZD5153]; settings: max 1 µM
Method in brief: as §1

[19] = compound: C[C@@H](Oc1cc(-c2cnn(C3CCNCC3)c2)cnc1N)c1c(Cl)ccc(F)c1Cl [Crizotinib]; settings: max 10 µM
Method in brief: as §1

[20] = compound: C[C@@H]1COCCN1C2=NC(=NC(=C2)C3(CC3)[S@](=N)(=O)C)C4=C5C=CNC5=NC=C4 [AZD6738]; settings: max 10 µM
Method in brief: as §1

[21] = compound: Cn1cnc2c(F)c(Nc3ccc(Br)cc3Cl)c(C(=O)NOCCO)cc21 [Selumetinib]; settings: max 10 µM
Method in brief: as §1

[22] = compound: COc1cc(Nc2ncc3c(n2)-c2ccc(Cl)cc2C(c2c(F)cccc2OC)=NC3)ccc1C(=O)O [Alisertib]; settings: max 10 µM
Method in brief: as §1

[23] = compound: CCN(CCO)CCCOc1ccc2c(Nc3cc(CC(=O)Nc4cccc(F)c4)[nH]n3)ncnc2c1 [AZD2811]; settings: max 1 µM
Method in brief: as §1

[24] = compound: Cc1cc2ncnn2cc1Nc1ncc2c(n1)n(C1CCOCC1)c(=O)n2C [AZD7648]; settings: max 10 µM
Method in brief: as §1

[25] = compound: Cc1c2c(nn1C)CSCc1cc(n(C)n1)CSc1cc(c3ccccc3c1)OCCCc1c(C(=O)O)n(C)c3c-2c(Cl)ccc13 [AZD5991]; settings: max 1 µM
Method in brief: as §1

[26] = compound: CC1(C)CCC(CN2CCN(c3ccc(C(=O)NS(=O)(=O)c4ccc(NCC5CCOCC5)c([N+](=O)[O-])c4)c(Oc4cnc5[nH]ccc5c4)c3)CC2)=C(c2ccc(Cl)cc2)C1 [Venetoclax]; settings: max 1 µM
Method in brief: as §1

[27] = compound: CC1=CN2[C@@H](C1)C=NC3=CC(=C(C=C3C2=O)OC)OCCCCCOC4=C(C=C5C(=C4)N=C[C@@H]6CC(=CN6C5=O)C)OC [SG3199]; settings: max 0.001 µM
Method in brief: as §1

Row | Cell Line | IC50, cell viability 72 h [1] | IC50, cell viability 72 h [2] | IC50, cell viability 72 h [3] | IC50, cell viability 72 h [4] | IC50, cell viability 72 h [5] | IC50, cell viability 72 h [6] | IC50, cell viability 72 h [7] | IC50, cell viability 72 h [8] | IC50, cell viability 72 h [9] | IC50, cell viability 72 h [10] | IC50, cell viability 72 h [11] | IC50, cell viability 72 h [12] | IC50, cell viability 72 h [13] | IC50, cell viability 72 h [14] | IC50, cell viability 72 h [15] | IC50, cell viability 72 h [16] | IC50, cell viability 72 h [17] | IC50, cell viability 72 h [18] | IC50, cell viability 72 h [19] | IC50, cell viability 72 h [20] | IC50, cell viability 72 h [21] | IC50, cell viability 72 h [22] | IC50, cell viability 72 h [23] | IC50, cell viability 72 h [24] | IC50, cell viability 72 h [25] | IC50, cell viability 72 h [26] | IC50, cell viability 72 h [27]
1 | ALL-SIL (T-Lymphoblastic Leukemia) | > 300 nM | > 10 µM | < 2 nM | > 10 µM | 5.65 nM | > 10 µM | > 3000 nM | 146 nM | > 1000 nM | 1.52 nM | 6.05 µM | 9.78 nM | > 1000 nM | > 3000 nM | 449 nM | > 10 µM | > 10 µM | 237 nM | 0.244 µM | 1430 nM | > 10 µM | 44.7 nM | 4.94 nM | > 10 µM | 141 nM | 257 nM | > 1 nM
2 | CADO-ES1 (Ewing's Sarcoma) | > 300 nM | > 10 µM | > 2000 nM | > 10 µM | 50 nM | > 10 µM | > 3000 nM | 827 nM | > 1000 nM | 2.06 nM | > 10 µM | 243 nM | > 1000 nM | > 3000 nM | 2290 nM | > 10 µM | > 10 µM | > 1000 nM | > 10 µM | 2890 nM | > 10 µM | 135 nM | > 1000 nM | > 10 µM | 207 nM | 60.9 nM | > 1 nM
3 | EJM (Plasma Cell Myeloma) | > 300 nM | > 10 µM | > 2000 nM | > 10 µM | 8.91 nM | > 10 µM | > 3000 nM | 837 nM | > 1000 nM | 25.9 nM | > 10 µM | > 1000 nM | > 1000 nM | > 3000 nM | 202 nM | > 10 µM | > 10 µM | 414 nM | 6.79 µM | 1650 nM | > 10 µM | > 10000 nM | > 1000 nM | > 10 µM | 332 nM | > 1000 nM | > 1 nM
4 | EW-1 (Ewing's Sarcoma) | > 300 nM | 5.21 µM | > 2000 nM | > 10 µM | 10.9 nM | > 10 µM | > 3000 nM | 317 nM | > 1000 nM | 4.54 nM | 0.64 µM | 586 nM | > 1000 nM | > 3000 nM | 294 nM | > 10 µM | 6.67 µM | 357 nM | 2.04 µM | 2480 nM | > 10 µM | 4900 nM | > 1000 nM | > 10 µM | > 1000 nM | > 1000 nM | > 1 nM
5 | G-401 (Other Solid Carcinomas) | > 300 nM | 0.833 µM | > 2000 nM | > 10 µM | 239 nM | 2.71 µM | > 3000 nM | 111 nM | > 1000 nM | 58.9 nM | 0.336 µM | > 1000 nM | 84.2 nM | > 3000 nM | 1410 nM | > 10 µM | > 10 µM | 48.3 nM | 5.41 µM | > 10000 nM | > 10 µM | 1000 nM | > 1000 nM | > 10 µM | > 1000 nM | > 1000 nM | > 1 nM
6 | HCC2998 (Colorectal Carcinoma) | > 300 nM | > 10 µM | > 2000 nM | > 10 µM | 18.8 nM | > 10 µM | > 3000 nM | 389 nM | > 1000 nM | 144 nM | 5.39 µM | 485 nM | 14.1 nM | > 3000 nM | 981 nM | > 10 µM | > 10 µM | 314 nM | > 10 µM | 3120 nM | 0.382 µM | > 10000 nM | > 1000 nM | > 10 µM | 259 nM | > 1000 nM | > 1 nM
7 | Hey (Ovarian Carcinoma) | > 300 nM | > 10 µM | 450 nM | > 10 µM | 128 nM | > 10 µM | > 3000 nM | 398 nM | > 1000 nM | 32 nM | 7.99 µM | > 1000 nM | 59.8 nM | > 3000 nM | 1200 nM | > 10 µM | > 10 µM | 476 nM | > 10 µM | 6180 nM | 3.04 µM | 1240 nM | > 1000 nM | > 10 µM | > 1000 nM | > 1000 nM | > 1 nM
